Experiment [1] deals with cisplatin-insensitive SP cells from H1650 cells. Kind of experiment: Sphere formation of cisplatin-insensitive SP cells (FIG. 30). The note with it: YAP1 inhibitors 2 uM, cisplatin 5 uM. It is filed as cell-based. On the procedure:
One feature of cancer stem cells is their drug resistance. Sphere formation of SP cells from H1650 cells was conduced in the presence of cisplatin; stem-like SP cells can self-renew and form spheres in stem-cell selective media and on low-adherence plates, even in the presence of 5 uM cisplatin (top right image).

Experiment [2] concerns stem-like side-population (SP) cells. Description: Sphere-formation assay, self-renewal of side-population cells (FIG. 18-21). The format is cell-based. The note with it: SP cells in low-adherence plates, stem-cell selective media, 10 days. The protocol:
FIG. 18 is a group of cell micrographs showing inhibition of self-renewals by selected compounds in a sphere formation assay. Self-renewal of stem-like side-population (SP) cells was measured by a sphere-formation assay. Essentially, side-population cells were sorted by flow cytometry based on Hoechst 33342 dye exclusion as described in our publications. Isolated SP cells were grown in low-adherence plates in stem-cell selective media for 10 days (Singh and Chellappan, 2012, Bora-Singhal et al., 2015 etc). Self-renewal ability of the stem-like cells can be assessed by the formation of spheres under these conditions; non-stem cells cannot self-renew and form spheres.
The assay is conducted for 10 days, and the number of spheres larger than 50 μm in diameter is counted.

Experiment [3] relates to Sox2. Description: Western blot of Sox2 expression (FIG. 17). The format is cell-based. The note with it: H1650 and A549 cells; 10 uM; 72 hours. The protocol:
(§1) FIG. 17 is a group of gel images showing compounds SR2-046, SR2-051, and SR2-052 reduce Sox2, c-Myc expression in H165 and A549 cells. Cells were treated for 72 hours with the indicated compounds. A western blot showing the reduction of Sox2 expression in H1650 cells and in A549 cells after treatment with 10 uM of the drugs for 72 hours. There was a reduction in the levels of C-myc and phoshodiesterate kinase 2 as well. Western blotting was done using our standard protocols, as published in Bora-Singhal et al., 2015.

For another experiment, the system named is c-Myc. Description: Western blot of c-Myc expression (FIG. 17). It is filed as cell-based. To be noted: H1650 and A549 cells; 10 uM; 72 hours. On the procedure:
as §1

The test system of experiment [4] is phoshodiesterate kinase 2. Description: Western blot of phoshodiesterate kinase 2 levels (FIG. 17). It is filed as cell-based. To be noted: 10 uM; 72 hours. The protocol: as §1
Another experiment has as its target YAP1:OCT4 (Homo sapiens, UniProt P46937). Description: In vitro YAP1:OCT4 ELISA binding assay. The note with it: YAP1:OCT4 disruption. On the procedure: Activities of Compounds in the In Vitro YAP1:OCT4 ELISA Binding Assay
Selected compounds were assayed in a YAP1:OCT4 binding assay.

Experiment [5] has as its system methotrexate insensitive H146 small-cell lung carcinoma cells. Description: Sphere formation of methotrexate-insensitive cells (FIG. 31). It is filed as cell-based. The note with it: YAP1 inhibitors 2 uM, methotrexate 2.5 uM. The protocol:
A similar experiment, where sphere formation of small-cell lung cancer cells, which are insensitive to methotrexate, was inhibited by YAP1 inhibitors. Sphere formation of SP cells from H146 small-cell lung carcinoma cells was conduced in the presence of 2.5 uM methotrexate; stem-like cells can self-renew and form spheres in stem-cell selective media and on low-adherence plates, even in the presence of 2.5 uM methotrexate.

The next experiment has as its target T1, binding of Oct4 to YAP1 (Homo sapiens, UniProt P46937).
T1 construct: Lysates were prepared from the cells, and immunoprecipitated with an antibody to OCt4; endogenous in cells; host or cells: A549 and H1650 cells
Description: Immunoprecipitation-Western blot of Oct4-YAP1 binding (FIG. 15). The format is cell-based. The note with it: 5 μM, 72 hours. The protocol: FIG. 15 is a group of gel images showing peptidomimetic compounds SR2-022, SR2-030, and SR2-033 reduced YAP1-Oct4 interaction as detected by IP-WB. An immunoprecipitation-Western blot experiment was conducted to assess if the indicated compounds could disrupt the binding of Oct4 to YAP1. IP-western blots were conducted using the protocols described in Bora-Singhal et al, 2015. Essentially, cells were treated with 5 μM of the indicated compounds for 72 hours. Lysates were prepared from the cells, and immunoprecipitated with an antibody to OCt4, or a control IgG. Lysates as well as the immunoprecipitates were resoled by a polyacrylamide gel and a western blot was conducted using an antibody to YAP1.

Experiment [6] deals with Sox2. Description: Sox2 protein expression, gel images (FIG. 16). The note with it: adenocarcinoma cells. The format is cell-based. From the text: FIG. 16 is a group of gel images showing Sox2 protein expression was reduced by SR-2033 in adenocarcinoma cells.
Experiment [7] deals with A549 lung adenocarcinoma cells. Kind of experiment: Cytokine array on A549 cells (FIG. 39). It is filed as cell-based. From the text:
FIG. 39 is a graph showing results from a cytokine array performed on A549 cells treated with SR2-033.

Experiment [8] concerns primary cancer associated fibroblasts. Kind of experiment: Cytokine array (FIG. 40). It is filed as cell-based.

SMILES strings stand for the structures. Bounds are passed on as bounds.

Sequence of YAP1:OCT4 (P46937 whole entry): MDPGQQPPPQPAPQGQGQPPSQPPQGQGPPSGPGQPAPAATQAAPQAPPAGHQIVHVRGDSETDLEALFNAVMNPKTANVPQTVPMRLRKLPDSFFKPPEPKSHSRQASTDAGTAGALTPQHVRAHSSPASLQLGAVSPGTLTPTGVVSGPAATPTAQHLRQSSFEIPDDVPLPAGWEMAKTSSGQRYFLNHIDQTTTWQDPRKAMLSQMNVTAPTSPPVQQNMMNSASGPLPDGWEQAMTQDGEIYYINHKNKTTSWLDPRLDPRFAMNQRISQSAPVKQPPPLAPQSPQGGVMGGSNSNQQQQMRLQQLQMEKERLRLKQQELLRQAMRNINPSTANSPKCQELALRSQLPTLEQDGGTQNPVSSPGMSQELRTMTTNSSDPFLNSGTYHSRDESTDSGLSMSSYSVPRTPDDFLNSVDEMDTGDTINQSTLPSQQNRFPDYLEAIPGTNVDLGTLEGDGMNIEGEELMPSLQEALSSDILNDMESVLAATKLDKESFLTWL
T1 sequence (P46937 whole entry): as above

On to `N.N.[Cl][Pt][Cl]` [Cisplatin], for which the “self-renewal (sphere formation) of dissociated cisplatin-insensitive spheres” value in [1] was “allowed self-renewal and formation of colonies”. Also, the number of spheres result in [2] is given as “no effect”.
Regarding `COC(=O)[C@H](Cc1ccc(OCc2ccccc2)cc1)NC(=O)CC1CCN(C(=O)c2ccc(NC(=O)OC(C)(C)C)cc2)CC1` [SR2-051, Methyl (S)-3-(4-(benzyloxy)phenyl)-2-(2-(1-(4-((tert-butoxycarbonyl)amino)benzoyl)piperidin-4-yl)acetamido)propanoate], the “Sox2 expression (western blot)” value in the experiment with Sox2 [3] is on record as “reduce”. Also, the “c-Myc expression (western blot)” value in the experiment on c-Myc is reported as “reduce”. Besides, the “levels of phoshodiesterate kinase 2 (western blot)” value (“levels … (western blot)” below) in experiment [4] is given as “reduction”. In addition, the IC50 on YAP1:OCT4 is less than 10 µM.
In the case of `CN(Cc1cnc2nc(N)nc(N)c2n1)c1ccc(C(=O)N[C@@H](CCC(=O)O)C(=O)O)cc1` [methotrexate], the “self-renewal (sphere formation) of dissociated methotrexate-insensitive spheres” value in experiment [5] is “allowed self-renewal and formation of colonies”.
For `COC(=O)[C@H](Cc1ccc(OCc2ccccc2)cc1)NC(=O)CC1CCN(C(=O)CCc2ccc(Cl)c(Cl)c2)CC1` [SR2-030, Methyl (S)-3-(4-(benzyloxy)phenyl)-2-(2-(1-(3-(3,4-dichlorophenyl)propanoyl)piperidin-4-yl)acetamido)propanoate], the “YAP1-Oct4 interaction detected by IP-WB” value was “completely abolished” at binding of Oct4 to YAP1 (A549 cells) and “significantly reduced” on binding of Oct4 to YAP1 (H1650 cells). For the same compound, the IC50 on YAP1:OCT4 was less than 10 µM.
As to `COC(=O)[C@H](Cc1ccc(OCc2ccccc2)cc1)NC(=O)CC1CCN(C(=O)CCc2ccc(C#N)cc2)CC1` [SR2-033, Methyl (S)-3-(4-(benzyloxy)phenyl)-2-(2-(1-(3-(4-cyanophenyl)propanoyl)piperidin-4-yl)acetamido)propanoate], the Sox2 protein expression entry with Sox2 [6] was “reduced”. Also, the “levels of secreted cytokines (cytokine array)” value in experiment [7] and in [8] was “altered” in each case. In addition, the “YAP1-Oct4 interaction detected by IP-WB” value is “completely abolished” on binding of Oct4 to YAP1 (A549 cells) and “significantly reduced” on binding of Oct4 to YAP1 (H1650 cells). This compound also gave an IC50 on YAP1:OCT4 of less than 10 µM.
`COC(=O)[C@H](Cc1ccc(OCc2ccccc2)cc1)NC(=O)CC1CCN(C(=O)CCCc2ccccc2)CC1` [SR2-046, Methyl (S)-3-(4-(benzyloxy)phenyl)-2-(2-(1-(4-phenylbutanoyl)piperidin-4-yl)acetamido)-propanoate]: in the experiment on Sox2 [3], the “Sox2 expression (western blot)” value is given as “reduce”. The “c-Myc expression (western blot)” value with c-Myc is reported as “reduce”. For the same compound, the “levels … (western blot)” value in [4] was “reduction”. This compound registered an IC50 on YAP1:OCT4 of less than 10 µM.
`COC(=O)[C@H](Cc1ccc(OCc2ccccc2)cc1)NC(=O)CC1CCN(C(=O)Cc2ccc(NC(=O)OC(C)(C)C)cc2)CC1` [SR2-052, Methyl (S)-3-(4-(benzyloxy)phenyl)-2-(2-(1-(2-(4-((tert-butoxycarbonyl)amino)phenyl)acetyl)piperidin-4-yl)acetamido)propanoate]: in the experiment with Sox2 [3], the “Sox2 expression (western blot)” value was “reduce”. In the experiment on c-Myc, the “c-Myc expression (western blot)” value was “reduce”. The “levels … (western blot)” value in experiment [4] is “reduction”. Moreover, at YAP1:OCT4, the IC50 is less than 10 µM.

The values are drawn from patent US11999695B2, “YAP1 inhibitors that target the interaction of YAP1 with OCT4” (H. LEE MOFFITT CANCER CENTER AND RESEARCH INSTITUTE, INC., priority 2016, dated 2024).
